Measurements as given in US9777003B2, “Tricyclic heterocycles as bet protein inhibitors” (Incyte Corporation, priority 2013, dated 2017).
Counter-ions that a name gives are not always drawn.

Key:
BRD4-BD2 = BRD4-BD2 (Homo sapiens (Human), UniProt O60885); test: BRD4 AlphaScreen assay, BRD4-BD2; format: binding; details: biotin-labeled tetra-acetylated histone H4 peptide, 75 min, room temperature, read-out: BRD4 BD-2 enzyme IC50
Procedure, shortened: (§1)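 IC50 values from percent-control versus log inhibitor fits after bead-based proximity readout (streptavidin donor, GSH acceptor, 75 min dark). Reactions: 75 min RT, pH 7.4 HEPES, biotin-H4Ac4 peptide 50 nM, with BD1 at 3.8 nM (DMSO 1.25%) and BD2 at 20 nM (DMSO 0.83%).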

BRD4-BD1 = BRD4-BD1 (Homo sapiens (Human), UniProt O60885); test: BRD4 AlphaScreen assay, BRD4-BD1; format: binding; details: biotin-labeled tetra-acetylated histone H4 peptide, 75 min, room temperature, read-out: BRD4 BD-1 enzyme IC50
Procedure, shortened: as §1

IC50 (BRD4-BD2)	IC50 (BRD4-BD1)	SMILES
≤ 100 nM	≤ 100 nM	CNC(=O)c1cc2c(ccc3nnc(C)n32)n1Cc1cccc(Cl)c1 [Example 99, 6-(3-chlorobenzyl)-N,1-dimethyl-6H-pyrrolo[2,3-e][1,2,4]triazolo[4,3-a]pyridine-7-carboxamide]
100 to 1000 nM	100 to 1000 nM	Cc1nnc2ccc3c(cc(C(=O)N[C@H]4C[C@@H](C#N)C4)n3Cc3ccccc3)n12 [Example 101, 6-benzyl-N-(cis-3-cyanocyclobutyl)-1-methyl-6H-pyrrolo[2,3-e][1,2,4]triazolo[4,3-a]pyridine-7-carboxamide]
≤ 100 nM	≤ 100 nM	Cc1nnc2ccc3c(cc(-c4ccn(CCC(=O)N5CCC5)n4)n3Cc3cccc(Cl)c3)n12 [Example 104, 7-[1-(3-azetidin-1-yl-3-oxopropyl)-1H-pyrazol-3-yl]-6-(3-chlorobenzyl)-1-methyl-6H-pyrrolo[2,3-e][1,2,4]triazolo[4,3-a]pyridine]
≤ 100 nM	≤ 100 nM	Cc1nnc2ccc3c(cc(-c4ccn(CCC(=O)N5CCN(C)CC5)n4)n3Cc3cccc(Cl)c3)n12 [Example 105, 6-(3-chlorobenzyl)-1-methyl-7-{1-[3-(4-methylpiperazin-1-yl)-3-oxopropyl]-1H-pyrazol-3-yl}-6H-pyrrolo[2,3-e][1,2,4]triazolo[4,3-a]pyridine]
≤ 100 nM	≤ 100 nM	CC(=O)N1CC(n2ccc(-c3cc4c(ccc5nnc(C)n54)n3Cc3cccc(Cl)c3)n2)C1 [Example 108, 7-[1-(1-acetylazetidin-3-yl)-1H-pyrazol-3-yl]-6-(3-chlorobenzyl)-1-methyl-6H-pyrrolo[2,3-e][1,2,4]triazolo[4,3-a]pyridine]
100 to 1000 nM	100 to 1000 nM	Cc1nnc2ccc3c(cnn3Cc3ccccc3)n12 [Example 112, 6-benzyl-1-methyl-6H-pyrazolo[3,4-e][1,2,4]triazolo[4,3-a]pyridine]
≤ 100 nM	≤ 100 nM	Cc1nnc2ccc3c(cc(C(=O)NCCO)n3Cc3cccc(Cl)c3)n12 [Example 117, 6-(3-Chlorobenzyl)-N-(2-hydroxyethyl)-1-methyl-6H-pyrrolo[2,3-e][1,2,4]triazolo[4,3-a]pyridine-7-carboxamide Trifluoroacetate Salt]
≤ 100 nM	≤ 100 nM	CCNC(=O)c1cc2c(ccc3nnc(C)n32)n1Cc1cccc(CN2CCC2)c1 [Example 121, 6-[3-(Azetidin-1-ylmethyl)benzyl]-N-ethyl-1-methyl-6H-pyrrolo[2,3-e][1,2,4]triazolo[4,3-a]pyridine-7-carboxamide bis(trifluoroacetate) Salt]
1000 to 10000 nM	1000 to 10000 nM	Cc1nnc2ccc3c(cc(C(=O)NCC4CNC4)n3Cc3ccccc3)n12 [Example 124, N-(Azetidin-3-ylmethyl)-6-benzyl-1-methyl-6H-pyrrolo[2,3-e][1,2,4]triazolo[4,3-a]pyridine-7-carboxamide bis(trifluoroacetate) Salt]
100 to 1000 nM	100 to 1000 nM	Cc1nnc2ccc3c(cc(C(=O)NCC(C)C)n3Cc3ccccc3)n12 [Example 125, 6-Benzyl-N-isobutyl-1-methyl-6H-pyrrolo[2,3-e][1,2,4]triazolo[4,3-a]pyridine-7-carboxamide Trifluoroacetate]
≤ 100 nM	≤ 100 nM	Cc1nnc2ccc3c(cc(C(=O)NCC(C)C)n3Cc3cccc(Cl)c3)n12 [Example 129, 6-(3-Chlorobenzyl)-N-isobutyl-1-methyl-6H-pyrrolo[2,3-e][1,2,4]triazolo[4,3-a]pyridine-7-carboxamide Trifluoroacetate Salt]
≤ 100 nM	≤ 100 nM	CNC(=O)c1cc2c(ccc3nnc(C)n32)n1Cc1cc(Cl)cc(CN2CCC2)c1 [Example 131, 6-[3-(Azetidin-1-ylmethyl)-5-chlorobenzyl]-N,1-dimethyl-6H-pyrrolo[2,3-e][1,2,4]triazolo[4,3-a]pyridine-7-carboxamide bis(trifluoroacetate) Salt]

More lines, now with the values behind:

SMILES	IC50 (BRD4-BD2)	IC50 (BRD4-BD1)
Cc1nnc2ccc3c(cc(C(=O)N[C@H]4C[C@H](C#N)C4)n3Cc3ccccc3)n12 [Example 100, 6-benzyl-N-(trans-3-cyanocyclobutyl)-1-methyl-6H-pyrrolo[2,3-e][1,2,4]triazolo[4,3-a]pyridine-7-carboxamide]	≤ 100 nM	≤ 100 nM
CNC(=O)c1cc2c(ccc3nnc(C)n32)n1Cc1cccc(F)c1 [Example 102, 6-(3-fluorobenzyl)-N,1-dimethyl-6H-pyrrolo[2,3-e][1,2,4]triazolo[4,3-a]pyridine-7-carboxamide]	≤ 100 nM	≤ 100 nM
Cc1nnc2ccc3c(cc(-c4ccn(CCC(=O)N(C)C)n4)n3Cc3cccc(Cl)c3)n12 [Example 103, 3-{3-[6-(3-chlorobenzyl)-1-methyl-6H-pyrrolo[2,3-e][1,2,4]triazolo[4,3-a]pyridin-7-yl]-1H-pyrazol-1-yl}-N,N-dimethylpropanamide]	≤ 100 nM	≤ 100 nM
CC(=O)N1CC(CC#N)(n2ccc(-c3cc4c(ccc5nnc(C)n54)n3Cc3cccc(Cl)c3)n2)C1 [Example 106, (1-acetyl-3-{3-[6-(3-chlorobenzyl)-1-methyl-6H-pyrrolo[2,3-e][1,2,4]triazolo[4,3-a]pyridin-7-yl]-1H-pyrazol-1-yl}azetidin-3-yl)acetonitrile]	≤ 100 nM	≤ 100 nM
Cc1nnc2ccc3c(cc(-c4ccn(C5(CC#N)CN(S(C)(=O)=O)C5)n4)n3Cc3cccc(Cl)c3)n12 [Example 107, [3-{3-[6-(3-chlorobenzyl)-1-methyl-6H-pyrrolo[2,3-e][1,2,4]triazolo[4,3-a]pyridin-7-yl]-1H-pyrazol-1-yl}-1-(methylsulfonyl)azetidin-3-yl]acetonitrile]	≤ 100 nM	≤ 100 nM
CCNC(=O)c1cc2c(ccc3nnc(C)n32)n1Cc1cccc(Cl)c1 [Example 113, 6-(3-Chlorobenzyl)-N-ethyl-1-methyl-6H-pyrrolo[2,3-e][1,2,4]triazolo[4,3-a]pyridine-7-carboxamide Trifluoroacetate Salt]	≤ 100 nM	≤ 100 nM
Cc1nnc2ccc3c(cc(C(=O)NCC4CC4)n3Cc3cccc(Cl)c3)n12 [Example 114, 6-(3-Chlorobenzyl)-N-(cyclopropylmethyl)-1-methyl-6H-pyrrolo[2,3-e][1,2,4]triazolo[4,3-a]pyridine-7-carboxamide Trifluoroacetate Salt]	≤ 100 nM	≤ 100 nM
Cc1nnc2ccc3c(cc(C(=O)NCCN(C)C)n3Cc3cccc(Cl)c3)n12 [Example 115, 6-(3-Chlorobenzyl)-N-[2-(dimethylamino)ethyl]-1-methyl-6H-pyrrolo[2,3-e][1,2,4]triazolo[4,3-a]pyridine-7-carboxamide bis(trifluoroacetate) Salt]	100 to 1000 nM	100 to 1000 nM
Cc1nnc2ccc3c(cc(C(=O)N4CCOCC4)n3Cc3cccc(Cl)c3)n12 [Example 116, 6-(3-Chlorobenzyl)-1-methyl-7-(morpholin-4-ylcarbonyl)-6H-pyrrolo[2,3-e][1,2,4]triazolo[4,3-a]pyridine Trifluoroacetate Salt]	1000 to 10000 nM	1000 to 10000 nM
Cc1nnc2ccc3c(cc(C(=O)NC4CN(C)C4)n3Cc3cccc(Cl)c3)n12 [Example 118, 6-(3-Chlorobenzyl)-1-methyl-N-(1-methylazetidin-3-yl)-6H-pyrrolo[2,3-e][1,2,4]triazolo[4,3-a]pyridine-7-carboxamide bis(trifluoroacetate) Salt]	100 to 1000 nM	100 to 1000 nM
Cc1nnc2ccc3c(cc(C(=O)NCCN4CCOCC4)n3Cc3cccc(Cl)c3)n12 [Example 119, 6-(3-Chlorobenzyl)-1-methyl-N-(2-morpholin-4-ylethyl)-6H-pyrrolo[2,3-e][1,2,4]triazolo[4,3-a]pyridine-7-carboxamide Trifluoroacetate Salt]	≤ 100 nM	≤ 100 nM
Cc1nnc2ccc3c(cc(C(=O)NC(C)(C)C)n3Cc3cccc(Cl)c3)n12 [Example 120, N-(tert-Butyl)-6-(3-chlorobenzyl)-1-methyl-6H-pyrrolo[2,3-e][1,2,4]triazolo[4,3-a]pyridine-7-carboxamide Trifluoroacetate Salt]	100 to 1000 nM	100 to 1000 nM
CNC(=O)c1cc2c(ccc3nnc(C)n32)n1Cc1cccc(CN2CCC2)c1 [Example 122, 6-[3-(Azetidin-1-ylmethyl)benzyl]-N,1-dimethyl-6H-pyrrolo[2,3-e][1,2,4]triazolo[4,3-a]pyridine-7-carboxamide bis(trifluoroacetate) Salt]	≤ 100 nM	≤ 100 nM
Cc1nnc2ccc3c(cc(C(=O)NCCCO)n3Cc3ccccc3)n12 [Example 123, 6-Benzyl-N-(3-hydroxypropyl)-1-methyl-6H-pyrrolo[2,3-e][1,2,4]triazolo[4,3-a]pyridine-7-carboxamide Trifluoroacetate Salt]	≤ 100 nM	100 to 1000 nM
Cc1nnc2ccc3c(cc(C(=O)NCc4ccncc4)n3Cc3ccccc3)n12 [Example 126, 6-Benzyl-1-methyl-N-(pyridin-4-ylmethyl)-6H-pyrrolo[2,3-e][1,2,4]triazolo[4,3-a]pyridine-7-carboxamide bis(trifluoroacetate) Salt]	100 to 1000 nM	100 to 1000 nM
Cc1nnc2ccc3c(cc(C(=O)NCCCO)n3Cc3cccc(Cl)c3)n12 [Example 127, 6-(3-Chlorobenzyl)-N-(3-hydroxypropyl)-1-methyl-6H-pyrrolo[2,3-e][1,2,4]triazolo[4,3-a]pyridine-7-carboxamide Trifluoroacetate Salt]	≤ 100 nM	≤ 100 nM
Cc1nnc2ccc3c(cc(C(=O)NCC4CNC4)n3Cc3cccc(Cl)c3)n12 [Example 128, N-(Azetidin-3-ylmethyl)-6-(3-chlorobenzyl)-1-methyl-6H-pyrrolo[2,3-e][1,2,4]triazolo[4,3-a]pyridine-7-carboxamide bis(trifluoroacetate) Salt]	100 to 1000 nM	100 to 1000 nM
